Test results from article PMC7760690, “Neuroprotective Metabolites from Vietnamese Marine Derived Fungi of Aspergillus and Penicillium Genera” (Marine Drugs, 2020).

How the values were obtained:
[1] = test system: PQ-treated Neuro-2a cells; assay: ROS level in PQ-treated cells (H2DCFDA); format: cell-based, murine
Protocol: (§1) The murine neuroblastoma cell line Neuro-2a was purchased from ATCC.
(§2) Neuro-2a cells were cultured in DMEM medium containing 10% fetal bovine serum (Biolot, St. Petersburg, Russia) and 1% penicillin/streptomycin (Biolot, St. Petersburg, Russia). Cells were incubated at 37 °C in a humidified atmosphere containing 5% (v/v) CO2 [71].
[…] Then, 6-OHDA/PQ/rotenone were added to cell suspension to resulting concentration of 50 µM, 500 µM and 10 µM respectively for incubation during 1 h. Cells incubated without neurotoxins and compounds and with neurotoxins alone were used as positive and negative controls, respectively. The 20 µL of 2,7-dichlorodihydrofluorescein diacetate solution (H2DCFDA, Molecular Probes, Eugene, OR, USA) was added to each well (10 µM, final concentration) and the plate was incubated for an additional 10 min at 37 °C. The intensity of dichlorofluorescein fluorescence was measured with PHERAstar FS plate reader (BMG Labtech, Ortenberg, Germany) at λex = 485 nm and λem = 518 nm. The data were processed by MARS Data Analysis v. 3.01R2 (BMG Labtech, Germany). The results were presented as the percent of positive control data.

[2] = test system: PQ-treated Neuro-2a cells; assay: Paraquat-induced PD cell model, cell viability (MTT); format: cell-based, murine
Protocol: as §1, §2
(§3) The neuroblastoma Neuro-2a line cells (1 × 10^4 cells/well) were treated with the test compounds at concentrations of 1 and/or 10 µM for 1 h, and then the neurotoxins were added to the neuroblastoma cell suspensions. Rotenone (Sigma-Aldrich, USA) was used at the concentration of 10 µM. Paraquat (Sigma-Aldrich, USA) was used at 500 µM. 6-Hydroxydopamine (Sigma-Aldrich, USA) was used at 50 µM. Cells incubated without neurotoxins and the test compounds and cells incubated with neurotoxins only were used as positive and negative controls, respectively. After 24 h of incubation, the cell viabilities were measured using the MTT method. The results are presented as the percent of positive control data.

MTT cytotoxicity assay = format: cell-based, murine; conditions: mouse, Neuro-2a neuroblastoma cells; Neuro-2a cells, MTT
Protocol: as §1, §2
The in vitro cytotoxicity of the individual substances was evaluated using an MTT (3-(4,5-dimethylthiazol-2-yl)-2,5-diphenyltetrazolium bromide) assay, which was performed according to the manufacturer’s instructions (Sigma-Aldrich, USA). Absorbance of the converted formazan was measured using a Multiskan FC plate photometer (Thermo Scientific, Waltham, MA, USA) at λ = 570 nm. The results were presented as percent of control data, and concentration of cell viability inhibition on 50% (IC50) was calculated.

[3] = DPPH radical scavenger assay; conditions: for EC50 / DPPH Radical Scavenging 100 µM % of MeOH: 30 min; for EC50: MeOH, read-out: DPPH Radical Scavenging EC50; for DPPH Radical Scavenging 100 µM % of MeOH: compound 100 µM, absorbance 520 nm
Protocol: The DPPH radical scavenging activities of the compounds were tested as described.
The compounds were dissolved in MeOH, and the solutions (120 µL) were dispensed into wells of a 96-well microplate. In all, 30 µL of the DPPH (Sigma-Aldrich, Steinheim, Germany) solution in MeOH (7.5 × 10^−3 M) was added to each well. The concentrations of the test compounds in the mixtures were 10 and 100 µM. The mixtures were shaken and left to stand for 30 min, and the absorbance of the resulting solutions was measured at 520 nm with a microplate reader MultiscanFC (ThermoScientific, Waltham, MA, USA). The concentration scavenging 50% of the DPPH radical (EC50) was calculated for each investigated compound.

[4] = test system: Neuro-2a cells treated with 6-OHDA; assay: 6-OHDA-induced PD cell model, cell viability (MTT); format: cell-based, murine; conditions: compounds 6-12 at 1 µM; 6-OHDA 50 µM
Protocol: as §1, §2, §3

[5] = set-up: method as in doi:10.1007/BF03175531; conditions: cited from earlier work
[6] = test system: 6-OHDA-treated Neuro-2a cells; assay: ROS level in 6-OHDA-treated cells (H2DCFDA); format: cell-based, murine
Protocol: as §1, §2
(§4) The cells (1 × 10^4 cells/well of a 96-well plate) were incubated with compound solutions (10 µM) during 1 h. Then, 6-OHDA/PQ/rotenone were added to cell suspension to resulting concentration of 50 µM, 500 µM and 10 µM respectively for incubation during 1 h. Cells incubated without neurotoxins and compounds and with neurotoxins alone were used as positive and negative controls, respectively. The 20 µL of 2,7-dichlorodihydrofluorescein diacetate solution (H2DCFDA, Molecular Probes, Eugene, OR, USA) was added to each well (10 µM, final concentration) and the plate was incubated for an additional 10 min at 37 °C. The intensity of dichlorofluorescein fluorescence was measured with PHERAstar FS plate reader (BMG Labtech, Ortenberg, Germany) at λex = 485 nm and λem = 518 nm. The data were processed by MARS Data Analysis v. 3.01R2 (BMG Labtech, Germany). The results were presented as the percent of positive control data.

[7] = set-up: method as in doi:10.1007/BF01922472, doi:10.1016/j.tet.2016.09.008; conditions: cited from earlier work
[8] = test system: rotenone-treated Neuro-2a cells; assay: ROS level in rotenone-treated cells (H2DCFDA); format: cell-based, murine
Protocol: as §1, §2, §4

[9] = test system: rotenone-treated Neuro-2a cells; assay: Rotenone-induced PD cell model, cell viability (MTT); format: cell-based, murine
Protocol: as §1, §2, §3

[10] = no exact data published; cited from earlier work
Nrf2-ARE pathway = test system: Nrf2-ARE pathway; set-up: method as in PMID 27450949; conditions: cited from earlier work
[11] = test system: MCF-7, HepG-2, NCI-H460 and SF-268; set-up: method as in PMID 18444265, PMID 28481313, PMID 27128202; conditions: four tumor cell lines and some others; cited from earlier work
[12] = test system: Escherichia coli and Bacillus subtilis; set-up: method as in doi:10.1007/s10600-016-1745-x; conditions: cited from earlier work
[13] = compounds 1-5, compound 10 µM 1 h, PQ 500 µM 1 h
[14] = compounds 1-5, compound 10 µM 1 h, 6-OHDA 50 µM 1 h
[15] = compounds 1-5, compound 10 µM 1 h, rotenone 10 µM 1 h

Row | SMILES | IC50 (MTT cytotoxicity assay) [µM] | EC50 [3] [µM] | DPPH Radical Scavenging 100 µM % of MeOH [3] | also measured
1 | C[n+]1ccc(-c2cc[n+](C)cc2)cc1 [PQ, paraquat, reference compound] |  |  |  | increase of intracellular ROS level by neurotoxin ([1]; PQ 500 µM alone, 1 h): 48%; decrease of Neuro-2a cell viability by neurotoxin ([2]; paraquat 500 µM alone, 24 h): 44%
2 | C=CC(C)(C)c1[nH]c2ccccc2c1C1=C(OC)C(=O)C(c2cn(C(C)(C)C=C)c3ccccc23)=C(OC)C1=O [Compound 7, Asterriquinone A3] | > 100 | > 100 | 88.9 ± 1.6 % of MeOH | cytoprotective activity in 6-OHDA-induced PD cell model [4]: weak cytoprotective activity
3 | COC1=C(c2c[nH]c3ccccc23)C(=O)C(OC)=C(c2c[nH]c3ccccc23)C1=O [Compound 11, asterriquinone D] | > 100 | > 100 | 85.6 ± 1.3 % of MeOH | 
4 | C=CC(C)(C)c1[nH]c2ccccc2c1C1=C(OC)C(=O)C(c2c[nH]c3ccccc23)=C(OC)C1=O [Compound 9, asterriquinone C1] | 42.3 ± 1.45 | > 100 | 82.4 ± 1.7 % of MeOH | 
5 | O=C1C[C@H](O)[C@@H](O)c2cccc(O)c21 [Compound 2, (3S,4S)-4-hydroxy-6-dehydroxyscytalone] | > 100 | > 100 | 84.8 ± 3.2 % of MeOH | antinematodal activity [5]: antinematodal agents; influence on ROS level in PQ-treated cells [1, 13]: decreased a ROS level; influence on ROS level in 6-OHDA-treated cells [6, 14]: decreased a ROS level; phytotoxic activity [7]: phytotoxic; influence on ROS level in rotenone-treated cells [8, 15]: decreased a ROS level
6 | C=CC(C)(C)c1[nH]c2ccccc2c1C1=C(OC)C(=O)C(c2c(C(C)(C)C=C)[nH]c3ccccc23)=C(OC)C1=O [Compound 8, asterriquinone B4] | 91.5 ± 1.87 | > 100 | 89.5 ± 0.9 % of MeOH | 
7 | COc1cc(O)cc2c1C(=O)c1c(O)cc(C)cc1C2=O [Compound 12, questin] | > 100 | > 100 | 87.7 ± 2.4 % of MeOH | influence on ROS level in PQ-treated cells ([1]; compounds 6-12, 1 µM (method: 10 µM), PQ 500 µM): significant in vitro anti-ROS activity; cytoprotective activity in rotenone-induced PD cell model ([9]; compounds 6-12 at 1 µM, rotenone 10 µM): moderate cytoprotective activity; radical scavenging activity in cell-free assay ([3]; DPPH, up to 100 µM): did not show any significant DPPH radical scavenging; influence on ROS level in 6-OHDA-treated cells ([6]; compounds 6-12, 1 µM (method: 10 µM), 6-OHDA 50 µM): significant in vitro anti-ROS activity; DPPH-radical scavenging activity [10]: DPPH-radical scavenging activity has been reported; cytoprotective activity in PQ-induced PD cell model ([2]; compounds 6-12 at 1 µM, paraquat 500 µM): inactive; cytoprotective activity in 6-OHDA-induced PD cell model [4]: inactive; influence on ROS level in rotenone-treated cells ([8]; compounds 6-12, 1 µM (method: 10 µM), rotenone 10 µM): significant in vitro anti-ROS activity
8 | COc1c2c(c(OC)c(O)c1-c1c[nH]c3ccccc13)C1(O)c3ccccc3NC1O2 (centres unmarked) [Compound 6, 3-(1H-indol-3-yl)-1,4-dimethoxy-5a,6-dihydro-10bH-benzofuro [2,3-b]indole-2,10b-diol] | > 100 | > 100 | 67.3 ± 3.9 % of MeOH | 
9 | NCCc1cc(O)c(O)cc1O [Compound 6-OHDA, 6-hydroxydopamine, reference compound] |  |  |  | increase of intracellular ROS level by neurotoxin ([6]; 6-OHDA 50 µM alone, 1 h): 66%
10 | CC1CC(O)CC2(Cc3cc(O)cc(O)c3C(=O)O2)O1 (centres unmarked) [Compound 3, demethylcitreoviranol] | > 100 | > 100 | 91.2 ± 1.8 % of MeOH | influence on ROS level in PQ-treated cells [1, 13]: effective against ROS level enhancing; inducing of the Nrf2-ARE pathway (Nrf2-ARE pathway): weak inducing of the Nrf2-ARE pathway; influence on ROS level in rotenone-treated cells [8, 15]: effective against ROS level enhancing
11 | O=C1C[C@H](O)[C@@H](O)c2cc(O)cc(O)c21 [Compound 1, (3S,4S)-4-hydroxyscytalone] | > 100 | > 100 | 83.4 ± 1.2 % of MeOH | antinematodal activity [5]: antinematodal agents; influence on ROS level in PQ-treated cells [1, 13]: decreased a ROS level; influence on ROS level in 6-OHDA-treated cells [6, 14]: decreased a ROS level; cytotoxicity against tumor cell lines [11]: no activity was shown; phytotoxic activity [7]: phytotoxic; antimicrobial activity [12]: weak antimicrobial activity; influence on ROS level in rotenone-treated cells [8, 15]: decreased a ROS level
12 | C=C(C)[C@H]1Cc2c(ccc3c2O[C@@H]2COc4cc(OC)c(OC)cc4[C@@H]2C3=O)O1 [Rotenone, reference compound] |  |  |  | decrease of Neuro-2a cell viability by neurotoxin ([9]; rotenone 10 µM alone, 24 h): 48%; increase of intracellular ROS level by neurotoxin ([8]; rotenone 10 µM alone, 1 h): 79%
13 | COC1=C(c2c[nH]c3ccccc23)C(=O)C(OC)=C(c2c[nH]c3c(CC=C(C)C)cccc23)C1=O [Compound 10, asterriquinone C2] | > 100 | > 100 | 91.3 ± 1.1 % of MeOH | 
